Results: patent publication US20070031485A1, “Pharmaceutical composition having a cationic excipient” (priority 2003, published 2007)
Where two headings read alike, the source gives them in different places.

Assays:
[1] = Critical micelle concentration; type: physicochemical
[2] = test system: Erythrocytes from rats
Procedure: Erythrocytes from rats were washed 3 times and suspended in saline solution (0.9%) to a volume fraction of 0.025. The hemolys experiments were performed by mixing the erythrocyte suspension with surfactant solutions in a 1:1 ratio, thereby giving a finale erythrocyte volume fraction of 0.0125 and a surfactant concentration as stated in the figure. The samples were then incubated at 37° C. for 1 hour and centrifuged at 2000 g for 10 minutes. Aliquots of the supernatant was mixed with an equal volume of 15 mM C14TAC before the hemoglobin content was measured spectrophotometrically on a Lab systems iEMS Reader MF at 540 nm.
The concentrate was dispersed in saline solution by gentle stirring at room temperature just before the experiment. The resulting aqueous dispersion was tested in the same way as stated above for the surfactant solution.
The concentrations given in the figure represent the amounts of cationic surfactant in the tested solutions. […] The phosphatidyl choline used is Epikuron 200 from Degussa BioActives, a pharmaceutical grade product of soybean origin. All data are normalized to the absorbance obtained from hemolysis by the 0.5 mM tetradecyltrimethylammonium chloride sample.

[3] = test system: intestinal mucosa (small intestine segments)
Text: (§1) A modified Using diffusion chamber with an exposed tissue area 1.78 cm^2 was used in the experiments. 15 to 20 cm of the small intestine, distal to the Ligament of Treitz was removed from rats (male Sprague-Dawley, 400-500 g) and used in the tests. Three rats and three segments per rat were included in each experimental group. The passage of different marker molecules, ^14C-mannitol and FITC-dextran (4400 FD4), from the mucosal to the serosal chamber were expressed as apparent permeability coefficient (Papp). The apparent permeability coefficient (Papp) to mannitol and FITC-dextran 4.400 across the intestinal mucosa was calculated from the equation: Papp (cm/s)×10-6)=dc/dt * (V/(A*C0)), where dc/dt is the change of the serosal concentration over time (mol/L/sec), V is the volume in the reservoir of the serosal side (cm^3), CO is the initial concentration of the marker in the mucosal reservoir (mol/L), and A is the exposed intestinal area in the chamber (cm^2) .
(§2) The difference in electric potential over the segments was measured before and after the experiment.

[4] = type: physicochemical; details: buffer
Text: Surface-active betaine esters are even more susceptible to alkaline hydrolysis than non-surface active esters. The reason for the increased reactivity of surface-active betaine esters is that the ester bond will hydrolyse more readily when the surfactants are in the form of aggregates, i.e. micelles. Like all other surfactants, surface-active betaine esters form micelles at a certain concentration, the CMC, and further increase of the surfactant concentration just leads to the formation of more micelles; the concentration of free surfactant molecules stays constant. In the vast majority of applications of cationic surfactants the concentration is far above the CMC, which means that almost all surfactants are in an aggregated form. The micelles of betaine ester surfactants are highly positively charged since all the quaternary ammonium groups are located at the surface of the aggregate. The positive charges must be compensated for by negatively charged ions, so-called counterions. All types of negative ions present in the solution, including hydroxyl ions, will accumulate at the micelle surface. This means that the local concentration of hydroxyl ions will be higher in the vicinity of the micelle than in the bulk, or, differently expressed, the local pH around the micelles will be higher than in the bulk. […]

[5] = Stabilization of aqueous dispersion of cholesterol particles, visual appearance; type: physicochemical; details: 1% cholesterol in 0.1% w/w (3 mM) dodecyl betainate solution
Procedure: The ability of dodecyl betainate to stabilize aqueous dispersions of hydrophobic particles was investigated in samples containing 1% cholesterol (of lanolin origin, Fluka) in pure water and in dodecyl betainate solutions of varying concentration. The samples were prepared by weighing the components into screw-capped glass vials that were first shaken, then kept in an ultrasonic bath for 5 minutes and finally shaken again before left for inspection. The table below presents the visual appearance of samples with different surfactant concentrations at different times.

[6] = test system: intestinal mucosa (small intestine segments); assay: Using (Ussing) diffusion chamber experiments, passage of marker molecules across rat small intestine; details: betaine ester containing solution (0.5 % w/w) compared to control
Text: as §1, §2

Question: For `CCCCCCCCCCCCCC[N+](C)(C)C.[Cl-]` [C14TAC, tetradecyltrimethylammonium chloride, reference compound], which “critical micelle concentration (CMC)” value [1] is on record?
Answer: Its value is 2.5 mM.

Question: Which results are given for `CCCCCCCCCCCCOC(=O)C[N+](C)(C)C` [dodecyl betainate]?
Answer: critical micelle concentration (CMC) [1]: 3.1 mM; toxicity to red blood cells (relative haemolytic effect) ([2]; at low concentrations, 37° C., 1 hour, compared with C14TAC): lower than that of the stable surfactant C14TAC; toxicity to red blood cells (relative haemolytic effect) ([2]; betaine ester co-formulated with phosphatidyl choline (weight ratio 20 to 80)): further lowered; permeability of intestinal segments for marker molecules [3]: not affected; half-life (hydrolysis) [4]: 1.5 h; Visual appearance after 5 min. [5]: Turbid dispersion; damage to segments, potential difference over the segments before and after treatment [6]: no increased damage

Question: For `CCOC(=O)C[N+](C)(C)C` [ethyl betainate, reference compound], which “half-life (hydrolysis)” value [4] is on record?
Answer: Its value is 9 h.
